{"source": "patent US12729377B2", "about": "“RNAi agents and compositions for inhibiting expression of angiopoietin-like 3 (ANGPTL3), and methods of use” (Arrowhead Pharmaceuticals, Inc., priority 2017, dated 2026)", "key": {"ANGPTL3 gene [1]": {"system": "ANGPTL3 gene", "assay": "Example 4: serum LDL in mice", "type": "in vivo, C57bl/6 mice", "details": "serum, n=3"}, "ANGPTL3 gene [2]": {"system": "ANGPTL3 gene", "assay": "Example 4: serum total cholesterol in mice", "type": "in vivo, C57bl/6 mice", "outline": "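Female C57bl/6 mice, 6–8 weeks old (n=3), received one subcutaneous dose of 1 or 0.5 mg/kg GalNAc-conjugated ANGPTL3 RNAi agent in D5W, or D5W alone. Serum taken after a 4 h fast on day −1 and days 8–43; ANGPTL3 measured by ELISA and lipids on Cobas Integra 400. Values normalized to the day −1 level, then to the D5W group mean.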"}, "ANGPTL3 gene [3]": {"system": "ANGPTL3 gene", "assay": "Example 2: serum total cholesterol in mice", "type": "in vivo", "experimental": "To assess the in vivo activity of ANGPTL3 RNAi agents that are designed to target different positions on the ANGPTL3 gene, six- to eight-week-old female C57bl/6 mice were used. Pre-dose serum samples were taken at day −1 after a four hour fast. At day 1, each mouse was given a single subcutaneous administration of 200 μl containing either 3 mg/kg (mpk) of an ANGPTL3 RNAi agent in D5W (dextrose in 5% water), or control (D5W) with no RNAi agent, according to the dosing groups recited in Table 7.\n(§1) Each of the RNAi agents included a modified sequence and an N-acetyl-galactosamine-containing targeting ligand conjugated to the 5′ terminal end of the sense strand. (See Tables 3, 4, and 5 for modified sequences and targeting ligand structures). The injections were performed between the skin and muscle (i.e. subcutaneous injections) into the loose skin over the neck and shoulder area. Three (3) mice in each group were tested (n=3). Serum was collected on days 8, 13, 22, 29, and day 36 (for Groups 1 and 5-11 only). Mice were fasted for four hours prior to each collection. ANGPTL3 protein levels in serum were measured by ELISA assay (R&D Systems), according to the manufacturer's recommendations. Triglycerides, high-density lipoprotein (HDL), and total cholesterol in serum were measured on a Cobas® Integra 400 (Roche Diagnostics), according to the manufacturer's recommendations.\n(§2) The ANGPTL3 protein levels, triglyceride levels, HDL levels, and total cholesterol levels for each animal were normalized. For normalization, the level of ANGPTL3 protein, triglyceride, HDL, and total cholesterol, respectively, for each animal at a time point, was divided by the pre-treatment level of expression in that animal (in this case at day −1) to determine the ratio of expression “normalized to pre-treatment.” Expression at a specific time point was then normalized to the D5W control group by dividing the “normalized to pre-treatment” ratio for an individual animal by the mean “normalized to pretreatment” ratio of all mice in the D5W control group."}, "ANGPTL3 gene [4]": {"system": "ANGPTL3 gene", "assay": "Example 3: serum total cholesterol in mice", "type": "in vivo", "experimental": "(§3) To assess the in vivo activity of ANGPTL3 RNAi agents that are designed to target positions 921 and 922 on the ANGPTL3 gene, six- to eight-week-old female C57bl/6 mice were used. Pre-dose serum samples were taken at day −1 after a four hour fast. At day 1, each mouse was given a single subcutaneous administration of 200 μl containing either 1 mg/kg (mpk) of an ANGPTL3 RNAi agent in D5W (dextrose in 5% water), or control (D5W) with no RNAi agent, according to the dosing groups recited in Table 12.\nas §1, with “Serum was collected on days 8, 13, 22, 29, and day 36 (for Groups 1 and 5-11 only).” left out\nas §2"}, "ANGPTL3 gene [5]": {"system": "ANGPTL3 gene", "assay": "Example 3: serum triglycerides in mice", "type": "in vivo", "experimental": "as §3\nas §1, with “Serum was collected on days 8, 13, 22, 29, and day 36 (for Groups 1 and 5-11 only).” left out\nas §2"}, "ANGPTL3 gene [6]": {"system": "ANGPTL3 gene", "assay": "Example 3: serum HDL in mice", "type": "in vivo", "experimental": "as §3\nas §1, with “Serum was collected on days 8, 13, 22, 29, and day 36 (for Groups 1 and 5-11 only).” left out\nas §2"}, "ANGPTL3 protein": {"system": "ANGPTL3 protein", "assay": "Example 3: serum ANGPTL3 protein by ELISA in mice", "type": "in vivo, C57bl/6 mice", "details": "for Avg ANGPTL3 (Average ANGPTL3 Protein Normalized to Pre-Treatment and Control): 1.0 mg/kg single subcutaneous dose on day 1, serum, female C57bl/6 mice", "experimental": "as §3\nas §1, with “Serum was collected on days 8, 13, 22, 29, and day 36 (for Groups 1 and 5-11 only).” left out\nas §2"}, "[7]": {"details": "Day 8, 1.0 mg/kg single subcutaneous dose on day 1, female C57bl/6 mice"}, "[8]": {"details": "Day 15, 1.0 mg/kg single subcutaneous dose on day 1, female C57bl/6 mice"}, "[9]": {"details": "Day 22, 1.0 mg/kg single subcutaneous dose on day 1, female C57bl/6 mice"}, "[10]": {"details": "Day 29, 1.0 mg/kg single subcutaneous dose on day 1, female C57bl/6 mice"}, "[11]": {"details": "day 22, single 1 mg/kg subcutaneous, C57bl/6 mice"}}, "note": "In the oligonucleotide strings, read from the 5' end, every base follows the letter of its sugar. An asterisk marks phosphorothioate; unmarked linkages are phosphodiester. Other units and linkages are bracketed, terminal groups are in braces. A string of capitals states the bases alone. {NAG37} = tridentate N-acetyl-galactosamine targeting ligand, structure (NAG37)s; [invAb] = inverted abasic unit; m = 2'-O-methyl; f = 2'-fluoro"}
{"substance": "AD05308: RNAi agent duplex: antisense AM07003-AS, sense AM07002-SS (chain 1 mU*fG*mU*fUmGfAmAfUmUfAmAfUmGfUmCfCmAfUmGfG*mA; chain 2 {NAG37}*[invAb]*mUmCmCmAmUmGmGmAfCfAfUmUmAmAmUmUmCmAmAmCmA*[invAb])", "values": [{"measurement": "Avg LDL, normalized to pre-treatment and control", "setting": "ANGPTL3 gene [1]; Day 8, 0.5 mg/kg single SC injection on day 1", "value": 0.965}, {"measurement": "Avg LDL, normalized to pre-treatment and control", "setting": "ANGPTL3 gene [1]; Day 8, 1.0 mg/kg single SC injection on day 1", "value": 0.842}, {"measurement": "Avg LDL, normalized to pre-treatment and control", "setting": "ANGPTL3 gene [1]; Day 15, 0.5 mg/kg single SC injection on day 1", "value": 0.830}, {"measurement": "Avg LDL, normalized to pre-treatment and control", "setting": "ANGPTL3 gene [1]; Day 15, 1.0 mg/kg single SC injection on day 1", "value": 0.688}, {"measurement": "Avg LDL, normalized to pre-treatment and control", "setting": "ANGPTL3 gene [1]; Day 22, 1.0 mg/kg single SC injection on day 1", "value": 0.829}, {"measurement": "Avg LDL, normalized to pre-treatment and control", "setting": "ANGPTL3 gene [1]; Day 29, 1.0 mg/kg single SC injection on day 1", "value": 0.897}, {"measurement": "Avg LDL, normalized to pre-treatment and control", "setting": "ANGPTL3 gene [1]; Day 43, 1.0 mg/kg single SC injection on day 1", "value": 1.033}, {"measurement": "Avg Total Chol, normalized to pre-treatment and control", "setting": "ANGPTL3 gene [2]; Day 8, 0.5 mg/kg single SC injection on day 1, n=3", "value": 0.992}, {"measurement": "Avg Total Chol, normalized to pre-treatment and control", "setting": "ANGPTL3 gene [2]; Day 8, 1.0 mg/kg single SC injection on day 1, n=3", "value": 0.868}, {"measurement": "Avg Total Chol, normalized to pre-treatment and control", "setting": "ANGPTL3 gene [2]; Day 15, 0.5 mg/kg single SC injection on day 1, n=3", "value": 0.838}, {"measurement": "Avg Total Chol, normalized to pre-treatment and control", "setting": "ANGPTL3 gene [2]; Day 15, 1.0 mg/kg single SC injection on day 1, n=3", "value": 0.793}, {"measurement": "Avg Total Chol, normalized to pre-treatment and control", "setting": "ANGPTL3 gene [2]; Day 22, 0.5 mg/kg single SC injection on day 1, n=3", "value": 1.000}, {"measurement": "Avg Total Chol, normalized to pre-treatment and control", "setting": "ANGPTL3 gene [2]; Day 22, 1.0 mg/kg single SC injection on day 1, n=3", "value": 0.770}, {"measurement": "Avg Total Chol, normalized to pre-treatment and control", "setting": "ANGPTL3 gene [2]; Day 29, 0.5 mg/kg single SC injection on day 1, n=3", "value": 0.958}, {"measurement": "Avg Total Chol, normalized to pre-treatment and control", "setting": "ANGPTL3 gene [2]; Day 29, 1.0 mg/kg single SC injection on day 1, n=3", "value": 0.819}, {"measurement": "Avg Total Chol, normalized to pre-treatment and control", "setting": "ANGPTL3 gene [2]; Day 43, 0.5 mg/kg single SC injection on day 1, n=3", "value": 1.157}, {"measurement": "Avg Total Chol, normalized to pre-treatment and control", "setting": "ANGPTL3 gene [2]; Day 43, 1.0 mg/kg single SC injection on day 1, n=3", "value": 1.073}, {"measurement": "Avg Total Chol (Average Total Cholestrol Normalized to Pre-Treatment and Control)", "setting": "ANGPTL3 gene [3]; Day 8, 3.0 mg/kg single subcutaneous dose on day 1, female C57bl/6 mice", "value": 0.671}, {"measurement": "Avg Total Chol (Average Total Cholestrol Normalized to Pre-Treatment and Control)", "setting": "ANGPTL3 gene [3]; Day 13, 3.0 mg/kg single subcutaneous dose on day 1, female C57bl/6 mice", "value": 0.645}, {"measurement": "Avg Total Chol (Average Total Cholestrol Normalized to Pre-Treatment and Control)", "setting": "ANGPTL3 gene [3]; Day 22, 3.0 mg/kg single subcutaneous dose on day 1, female C57bl/6 mice", "value": 0.621}, {"measurement": "Avg Total Chol (Average Total Cholestrol Normalized to Pre-Treatment and Control)", "setting": "ANGPTL3 gene [3]; Day 29, 3.0 mg/kg single subcutaneous dose on day 1, female C57bl/6 mice", "value": 0.669}, {"measurement": "Avg Total Chol (Average Total Cholestrol Normalized to Pre-Treatment and Control)", "setting": "ANGPTL3 gene [3]; Day 36, 3.0 mg/kg single subcutaneous dose on day 1, female C57bl/6 mice", "value": 0.905}, {"measurement": "Avg Total Chol (Average Total Cholestrol Normalized to Pre-Treatment and Control)", "setting": "ANGPTL3 gene [4]; [7]", "value": 0.872}, {"measurement": "Avg Total Chol (Average Total Cholestrol Normalized to Pre-Treatment and Control)", "setting": "ANGPTL3 gene [4]; [8]", "value": 0.768}, {"measurement": "Avg Total Chol (Average Total Cholestrol Normalized to Pre-Treatment and Control)", "setting": "ANGPTL3 gene [4]; [9]", "value": 1.048}, {"measurement": "Avg Total Chol (Average Total Cholestrol Normalized to Pre-Treatment and Control)", "setting": "ANGPTL3 gene [4]; [10]", "value": 0.978}, {"measurement": "Avg TG (Average Triglycerides Normalized to Pre-Treatment and Control)", "setting": "ANGPTL3 gene [5]; [7]", "value": 0.952}, {"measurement": "Avg TG (Average Triglycerides Normalized to Pre-Treatment and Control)", "setting": "ANGPTL3 gene [5]; [8]", "value": 0.749}, {"measurement": "Avg TG (Average Triglycerides Normalized to Pre-Treatment and Control)", "setting": "ANGPTL3 gene [5]; [9]", "value": 0.854}, {"measurement": "Avg TG (Average Triglycerides Normalized to Pre-Treatment and Control)", "setting": "ANGPTL3 gene [5]; [10]", "value": 1.009}, {"measurement": "Avg HDL (Average HDL Normalized to Pre-Treatment and Control)", "setting": "ANGPTL3 gene [6]; [7]", "value": 0.838}, {"measurement": "Avg HDL (Average HDL Normalized to Pre-Treatment and Control)", "setting": "ANGPTL3 gene [6]; [8]", "value": 0.754}, {"measurement": "Avg HDL (Average HDL Normalized to Pre-Treatment and Control)", "setting": "ANGPTL3 gene [6]; [9]", "value": 0.739}, {"measurement": "Avg HDL (Average HDL Normalized to Pre-Treatment and Control)", "setting": "ANGPTL3 gene [6]; [10]", "value": 0.953}, {"measurement": "Avg ANGPTL3 (Average ANGPTL3 Protein Normalized to Pre-Treatment and Control)", "setting": "ANGPTL3 protein; Day 8", "value": 0.196}, {"measurement": "Avg ANGPTL3 (Average ANGPTL3 Protein Normalized to Pre-Treatment and Control)", "setting": "ANGPTL3 protein; Day 15", "value": 0.202}, {"measurement": "Avg ANGPTL3 (Average ANGPTL3 Protein Normalized to Pre-Treatment and Control)", "setting": "ANGPTL3 protein; Day 22", "value": 0.209}, {"measurement": "Avg ANGPTL3 (Average ANGPTL3 Protein Normalized to Pre-Treatment and Control)", "setting": "ANGPTL3 protein; Day 29", "value": 0.309}, {"measurement": "ANGPTL3 protein normalized to pre-treatment and control", "setting": "ANGPTL3 protein; [11]", "value": 0.209}, {"measurement": "reduction in ANGPTL3 protein levels compared to control", "setting": "ANGPTL3 protein; [11]", "value": "~80", "unit": "%"}]}
